Results from patent US6664400B2 (dated 2003).

Compound `O=C1[C@H]2C[C@H](F)CN2C(=O)N1c1cc(NS(=O)(=O)CCl)c(Cl)cc1F` has a melting point of 168 to 170 °C.
